Measurements reported in patent US20260055103A1, “2,3,4,9-TETRAHYDRO-1H-PYRIDO[3,4-B]INDOLE DERIVATIVES AS ESTROGEN RECEPTOR MODULATORS FOR THE TREATMENT OF CANCER” (Olema Pharmaceuticals, Inc., priority 2022, published 2026).

Target: T1, estrogen receptor (Homo sapiens, UniProt P03372)
T1 construct: endogenous in cells; host or cells: ECC-1 cells
T1 sequence (P03372 1-595): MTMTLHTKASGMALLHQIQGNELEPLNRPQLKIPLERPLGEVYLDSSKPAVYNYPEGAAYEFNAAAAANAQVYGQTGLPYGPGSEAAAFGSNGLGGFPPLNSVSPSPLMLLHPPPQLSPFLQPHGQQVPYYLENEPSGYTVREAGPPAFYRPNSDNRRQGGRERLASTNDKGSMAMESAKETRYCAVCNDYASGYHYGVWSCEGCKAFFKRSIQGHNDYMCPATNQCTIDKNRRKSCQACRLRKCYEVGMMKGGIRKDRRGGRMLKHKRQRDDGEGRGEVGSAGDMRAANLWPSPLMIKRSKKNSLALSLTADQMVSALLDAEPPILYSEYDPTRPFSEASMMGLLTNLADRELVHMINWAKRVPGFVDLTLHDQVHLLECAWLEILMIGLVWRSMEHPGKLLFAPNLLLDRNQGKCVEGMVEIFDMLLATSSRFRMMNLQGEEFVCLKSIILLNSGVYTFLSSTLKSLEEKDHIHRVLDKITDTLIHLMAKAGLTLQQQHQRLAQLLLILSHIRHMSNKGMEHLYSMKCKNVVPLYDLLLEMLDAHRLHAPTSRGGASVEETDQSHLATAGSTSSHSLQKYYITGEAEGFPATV
Assay: Alkaline phosphatase (AP) assay in ECC-1 cells, agonist mode (no E2) and antagonist mode (500 pM E2)
Assay type: cell-based
Conditions: 3 days, AP activity normalized to 500 pM E2 alone, agonist mode without E2, antagonist mode with 500 pM E2
Description: ECC-1 cells were trypsinized and resuspended in hormone-depleted media and plated at a density of 15 k cells per well into a 96-well plate for at least 4 hours. Cells were treated with test compounds in the absence of E2 (for agonist mode) or in the presence of 500 pM E2 (for antagonist mode) for 3 days and plates were subsequently frozen at −80° C. Thawed plates were incubated with a chromogenic substrate of AP, p-nitrophenyl phosphate (Thermo Fisher Scientific), for 40 minutes at 42° C., and absorbances were read at 405 nm. AP activity was normalized to the activity of 500 pM E2 alone.
The compound numbers correspond to the compound numbers of Table 1 and 2. Compounds having an activity designated as “+” provided estrogen receptor agonism having (i) at least 80% increase in the E2-normalized signal in the AP assay (agonist mode) and (ii) no more than 80% reduction in the E2-normalized signal in the AP assay (antagonist mode). Compounds having an activity designated as “++” provided estrogen receptor antagonism having (i) between 10% and 80% increase in the E2-normalized signal in the AP assay (agonist mode) and (ii) between 10% and 80% reduction in the E2-normalized signal in the AP assay (antagonist mode).

## CCCN1CC(Cc2cnc([C@@H]3c4[nH]c5ccccc5c4C[C@@H](C)N3CC(F)(F)CO)s2)C1 [Example I-50, 2,2-difluoro-3-[(1S,3R)-3-methyl-1-[5-[(1-propylazetidin-3-yl)methyl]thiazol-2-yl]-1,3,4,9-tetrahydropyrido[3,4-b]indol-2-yl]propan-1-ol]
  Activity (estrogen receptor modulation, agonism and antagonism): ++ (estrogen receptor antagonism having (i) between 10% and 80% increase in the E2-normalized signal in the AP assay (agonist mode) and (ii) between 10% and 80% reduction in the E2-normalized signal in the AP assay (antagonist mode))

## C[C@@H]1Cc2c([nH]c3ccccc23)[C@@H](c2ccc(CCCN3CC[C@@H](CF)C3)s2)N1CC(C)(C)F [Example I-25, (1S,3R)-2-(2-fluoro-2-methylpropyl)-1-(5-(3-((R)-3-(fluoromethyl)pyrrolidin-1-yl)propyl)thiophen-2-yl)-3-methyl-2,3,4,9-tetrahydro-1H-pyrido[3,4-b]indole]
  Activity (estrogen receptor modulation, agonism and antagonism): ++ (estrogen receptor antagonism having (i) between 10% and 80% increase in the E2-normalized signal in the AP assay (agonist mode) and (ii) between 10% and 80% reduction in the E2-normalized signal in the AP assay (antagonist mode))

## C[C@@H]1Cc2c([nH]c3ccccc23)[C@@H](c2ccc(SC3CN(CCCF)C3)s2)N1CC(C)(C)F [Example I-61, 3-({5-[(1S,3R)-2-(2-fluoro-2-methylpropyl)-3-methyl-1H,2H,3H,4H,9H-pyrido[3,4-b]indol-1-yl]thiophen-2-yl}sulfanyl)-1-(3-fluoropropyl)azetidine]
  Activity (estrogen receptor modulation, agonism and antagonism): ++ (estrogen receptor antagonism having (i) between 10% and 80% increase in the E2-normalized signal in the AP assay (agonist mode) and (ii) between 10% and 80% reduction in the E2-normalized signal in the AP assay (antagonist mode))

## C[C@@H]1Cc2c([nH]c3ccccc23)[C@@H](c2ccc(CC3CN(CC4COC4)C3)s2)N1CC(C)(C)F [Example I-24, (1S,3R)-2-(2-fluoro-2-methylpropyl)-3-methyl-1-(5-((1-(oxetan-3-ylmethyl)azetidin-3-yl)methyl)thiophen-2-yl)-2,3,4,9-tetrahydro-1H-pyrido[3,4-b]indole]
  Activity (estrogen receptor modulation, agonism and antagonism): ++ (estrogen receptor antagonism having (i) between 10% and 80% increase in the E2-normalized signal in the AP assay (agonist mode) and (ii) between 10% and 80% reduction in the E2-normalized signal in the AP assay (antagonist mode))

## C[C@@H]1Cc2c([nH]c3ccccc23)[C@@H](c2ccc(CC3CN(CCC#N)C3)s2)N1CC(C)(C)F [Example I-56, 3-[3-[[5-[(1S,3R)-2-(2-fluoro-2-methyl-propyl)-3-methyl-1,3,4,9-tetrahydropyrido[3,4-b]indol-1-yl]-2-thienyl]methyl]azetidin-1-yl]propanenitrile]
  Activity (estrogen receptor modulation, agonism and antagonism): ++ (estrogen receptor antagonism having (i) between 10% and 80% increase in the E2-normalized signal in the AP assay (agonist mode) and (ii) between 10% and 80% reduction in the E2-normalized signal in the AP assay (antagonist mode))

## Cc1cc(CC2CN(CCCF)C2)sc1[C@@H]1c2[nH]c3ccccc3c2C[C@@H](C)N1CC(C)(C)F [Example I-6, 3-({5-[(1S,3R)-2-(2-fluoro-2-methylpropyl)-3-methyl-1H,2H,3H,4H,9H-pyrido[3,4-b]indol-1-yl]-4-methylthiophen-2-yl}methyl)-1-(3-fluoropropyl)azetidine]
  Activity (estrogen receptor modulation, agonism and antagonism): ++ (estrogen receptor antagonism having (i) between 10% and 80% increase in the E2-normalized signal in the AP assay (agonist mode) and (ii) between 10% and 80% reduction in the E2-normalized signal in the AP assay (antagonist mode))

## CCCN1CC(Cc2cnc([C@@H]3c4[nH]c5ccccc5c4C[C@@H](C)N3CC(F)(F)F)s2)C1 [Example I-37, 2-[(1S,3R)-3-methyl-2-(2,2,2-trifluoroethyl)-1,3,4,9-tetrahydropyrido[3,4-b]indol-1-yl]-5-[(1-propylazetidin-3-yl)methyl]thiazole]
  Activity (estrogen receptor modulation, agonism and antagonism): ++ (estrogen receptor antagonism having (i) between 10% and 80% increase in the E2-normalized signal in the AP assay (agonist mode) and (ii) between 10% and 80% reduction in the E2-normalized signal in the AP assay (antagonist mode))

## C[C@@H]1Cc2c([nH]c3ccccc23)[C@@H](c2sc(CC3CN(CCCF)C3)cc2F)N1CC(C)(C)F [Example I-12, 3-({4-fluoro-5-[(1S,3R)-2-(2-fluoro-2-methylpropyl)-3-methyl-1H,2H,3H,4H,9H-pyrido[3,4-b]indol-1-yl]thiophen-2-yl}methyl)-1-(3-fluoropropyl)azetidine]
  Activity (estrogen receptor modulation, agonism and antagonism): ++ (estrogen receptor antagonism having (i) between 10% and 80% increase in the E2-normalized signal in the AP assay (agonist mode) and (ii) between 10% and 80% reduction in the E2-normalized signal in the AP assay (antagonist mode))

## C[C@@H]1Cc2c([nH]c3ccccc23)[C@@H](c2ccc(CC3CN(CCCF)C3)s2)N1CC(F)(F)CO [Example I-16, 2,2-difluoro-3-[(1S,3R)-1-(5-{[1-(3-fluoropropyl)azetidin-3-yl]methyl}thiophen-2-yl)-3-methyl-1H,2H,3H,4H,9H-pyrido[3,4-b]indol-2-yl]propan-1-ol]
  Activity (estrogen receptor modulation, agonism and antagonism): +++ (estrogen receptor antagonism (i) with pIC50 greater than 7.5 and at least a 10% reduction in the E2-normalized signal in the AP assay (antagonist mode); and no more than 10% increase in E2-normalized signal in the AP assay (agonist mode))

## CCCN1CC[C@@H](Cc2ncc([C@@H]3c4[nH]c5ccccc5c4C[C@@H](C)N3CC(F)(F)CO)s2)C1 [Example I-46, 2,2-difluoro-3-((1S,3R)-3-methyl-1-(2-(((S)-1-propylpyrrolidin-3-yl)methyl)thiazol-5-yl)-1,3,4,9-tetrahydro-2H-pyrido[3,4-b]indol-2-yl)propan-1-ol]
  Activity (estrogen receptor modulation, agonism and antagonism): ++ (estrogen receptor antagonism having (i) between 10% and 80% increase in the E2-normalized signal in the AP assay (agonist mode) and (ii) between 10% and 80% reduction in the E2-normalized signal in the AP assay (antagonist mode))

## CCCN1CC(Cc2ccc([C@@H]3c4[nH]c5ccccc5c4C[C@@H](C)N3CC(C)(C)F)s2)C1 [Example I-1, 3-({5-[(1S,3R)-2-(2-fluoro-2-methylpropyl)-3-methyl-1H,2H,3H,4H,9H-pyrido[3,4-b]indol-1-yl]thiophen-2-yl}methyl)-1-propylazetidine]
  Activity (estrogen receptor modulation, agonism and antagonism): ++ (estrogen receptor antagonism having (i) between 10% and 80% increase in the E2-normalized signal in the AP assay (agonist mode) and (ii) between 10% and 80% reduction in the E2-normalized signal in the AP assay (antagonist mode))

## CCCN1CC(Sc2ccc([C@@H]3c4[nH]c5ccccc5c4C[C@@H](C)N3CC(C)(C)F)s2)C1 [Example I-62, 3-({5-[(1S,3R)-2-(2-fluoro-2-methylpropyl)-3-methyl-1H,2H,3H,4H,9H-pyrido[3,4-b]indol-1-yl]thiophen-2-yl}sulfanyl)-1-propylazetidine]
  Activity (estrogen receptor modulation, agonism and antagonism): ++ (estrogen receptor antagonism having (i) between 10% and 80% increase in the E2-normalized signal in the AP assay (agonist mode) and (ii) between 10% and 80% reduction in the E2-normalized signal in the AP assay (antagonist mode))

## CCCN1CC(Cc2sc([C@@H]3c4[nH]c5ccccc5c4C[C@@H](C)N3CC(C)(C)F)cc2C)C1 [Example I-8, (1S,3R)-2-(2-fluoro-2-methylpropyl)-3-methyl-1-(4-methyl-5-((1-propylazetidin-3-yl)methyl)thiophen-2-yl)-2,3,4,9-tetrahydro-1H-pyrido[3,4-b]indole]
  Activity (estrogen receptor modulation, agonism and antagonism): ++ (estrogen receptor antagonism having (i) between 10% and 80% increase in the E2-normalized signal in the AP assay (agonist mode) and (ii) between 10% and 80% reduction in the E2-normalized signal in the AP assay (antagonist mode))

## C[C@@H]1Cc2c([nH]c3ccccc23)[C@@H](c2cnc(N[C@H]3CN(CCCF)C[C@H]3F)s2)N1CC(F)(F)CO [Example I-64, 2,2-difluoro-3-[(1S,3R)-1-[2-[[(3S,4R)-4-fluoro-1-(3-fluoropropyl)pyrrolidin-3-yl]amino]thiazol-5-yl]-3-methyl-1,3,4,9-tetrahydropyrido[3,4-b]indol-2-yl]propan-1-ol]
  Activity (estrogen receptor modulation, agonism and antagonism): ++ (estrogen receptor antagonism having (i) between 10% and 80% increase in the E2-normalized signal in the AP assay (agonist mode) and (ii) between 10% and 80% reduction in the E2-normalized signal in the AP assay (antagonist mode))
